Experimental data taken from US20060257875A1, “Affinity screening using "one-bead-one-compound" libraries” (Carlsberg A/S, priority 2003, published 2006).

Experiments:
[1] = tested on: Serum induced (hypertrophied) Myocytes proteins; experiment: Solid phase screening of small molecule biaryl Library 7 with labeled myocyte proteins; assay type: binding, neonatal Wistar rats
[2] = tested on: PE-induced myocyte protein; experiment: Solid phase screening of Library 6 with unlabeled myocyte proteins; silver staining, on-bead tryptic digest; assay type: binding, neonatal Wistar rats; settings: PE-Treated Myocytes
Procedure: (§1) Myocytes were prepared from 1 to 5 day old neonatal Wistar rats (University of Copenhagen) according to literature procedure described in Busk et al., 2002, Cardiovasc. Res., 56: 64-75 and plated into eight P10 culture plates at 6 million cells/plate.
Isolated proteins that bound to specific ligands were identified using peptide mass fingerprinting. Mass spectra were recorded on a Bruker Reflex m MALDI time-of-flight mass spectrometer (Bruker-Daltonics, Bremen, Germany) operated in the positive reflectron mode using delayed extraction. Measurements were performed using the following parameters: Power 83-84 V; lens 7.300. The sum of 200-300 shots was used for each spectrum.
The spectra were calibrated using bradykinin peptide. In some cases, internal mass calibration was performed using a porcine trypsin autolysis product Peptide masses were searched against peptide mass maps in the National Center for Biotechnology Information (NCBI) database using the following search engines found on the world wide web (www.) for each of: • MS-FIT (prospector.ucsf.edu/ucsfhtml/msfit.htm), • Profound (129.85.19.192/profound_biniWebProFound.exe), and • MASCOT (matrixscience.com).
A search was performed using the NCBI bacterial (E. coli) database and the mammalian databases for the isolated proteins from the E. coli and myocyte samples, respectively, and the Swiss Prot mammalian databases and the Swiss Prot viral databases were searched to identify the porcine macrophage proteins and proteins, respectively. A molecular mass range was estimated from 0-250 K Da, allowing a mass accuracy that varied from 0.1 Da (some cases 0.3 Da) for each peptide mass. A large pI range from 0-14 or 0-12 was considered for each search. If no proteins matched, the mass window was extended. Partial enzyme cleavages allowing for two missed cleavage sites and modification of cysteine by alkylation were considered in the search approaches. A protein was considered identified if the matched peptides covered at least 30% of the complete sequence. A match of less than 30% was considered in some cases, if prominent peaks were obtained. Usually, four or more peptides were used for identification. In some instances, hypothetical proteins or gene products, such as biochemical material, either RNA or protein, calculated from the expected expression of a gene and to which a function may be assigned based on sequence homology, were identified.
Protein was extracted from myocytes prepared as described above for Example 9, using a new procedure (to preserve the activity of metalloproteases) modified from existing protocols, primarily: Amott, et al., 1998, Anal. Biochem. 258: 1-18. The media was removed from plates and cells were washed with ice cold phosphate buffer (5 ml, 10 mM, pH 7.5, supplemented with 0.15 M NaCl,) to remove traces of media components. The adhered cells were treated for 10 minutes with ice cold phosphate buffer (2 mL, 10 mM, pH 7.5, augmented with 0.15 M NaCl, […] E-64, 10 μg/mL Leupeptin, and 10 μg/mL Pepstatin A). The cells were scraped off the plates and then lysed (on ice) in a sonicator (2×) using 10 seconds off/110 seconds on cycles.
(§2) The resulting suspension was augmented with CHAPS (1% w/v), KCl (50 mM), NaCl (0.5 M), ZnCl2 (0.1 mM), DTT (5 mM), and urea (2 M). After 10-15 minutes on ice, the solution was centrifuged for 10 minutes at 15,000 rpm at 4° C. The supernatant was removed and protein content quantified using the NanoOrange Protein test (Molecular Probes, Eugene, Oreg.): Total protein recovered: 195 μg for PE-induced cells and 200 μg for basal cells.
The protein solutions were dialyzed extensively against 20 mM MES (2-[N-Morpholino]ethanesulfonic acid) buffer pH 6.0, supplemented with 0.15 M NaCl and 1 mM ZnCl2 to remove excess detergent and urea. […]

basal myocyte protein = experiment: Solid phase screening of Library 5 with labeled myocyte protein; assay type: binding, neonatal Wistar rats; settings: Normal Myocytes
Procedure: as §1
Protein was extracted from myocytes prepared as described above for Example 9, using a new procedure modified from existing protocols, primarily: Arrott, et al., 1998, Anal Biochem. 258: 1-18. The media was removed from plates and adhered cells were treated for 10 minutes with ice cold phosphate buffer (0.25 mL, 10 mM, pH 7.5, augmented with 0.15 M NaCl 60 mM Benzamidine HCl, 5 mM EDTA, 10 μg/n E-64, 10 μg/mL Leu-peptin, 10 μg/mL Pepstatin A, and 1 mM PMSF). The cells were scraped off the plates and then lysed (on ice) in a sonicator (2×) using 10 seconds off/10 seconds on cycles.
as §2, with “with CHAPS, DTT, and urea to a final concentration of” for “with”, “w/v),” for “w/v), KCl (50 mM), NaCl (0.5 M), ZnCl2 (0.1 mM),”, “(8” for “(2”, “70.5” for “195”, “PE-treated” for “PE-induced”, “60” for “200”
Fluorescent dye Oregon Green 514 (OR) (Molecular Probes) was used to label the healthy/basal cells while Rhodamine Red (RR) (Molecular Probes) was used to label the PE-treated cells. The labeling procedures were carried out according to the manufacturer's protocol. […]
(§3) A typical analysis employed 100-300 laser shots. […] The possible identity of the ligand was determined (Narrowed down) by comparing the recorded mass of the ligand with the masses of all possible compounds formed in the library. […]
(§4) Isolated proteins that bound to specific ligands were identified using peptide mass fingerprinting. Mass spectra were recorded on a Bruker Reflex m MALDI time-of-flight mass spectrometer (Bruker-Daltonics, Bremen, Germany) operated in the positive reflectron mode using delayed extraction. […]

Myocytes = experiment: Proliferation of myocytes with phenylephrine (in vitro model of hypertrophy); assay type: cell-based, neonatal Wistar rats; settings: 10 μM phenylephrine (PE); cells grown for two more days
[3] = tested on: Serum induced Myocytes proteins; experiment: Solid phase screening of Library 5 with labeled myocyte protein; assay type: binding, neonatal Wistar rats
[4] = target: isoleucine tRNA synthetase (Escherichia coli, UniProt P00956); settings: Merck Manual; cited from earlier work
Chain of isoleucine tRNA synthetase (P00956 whole entry): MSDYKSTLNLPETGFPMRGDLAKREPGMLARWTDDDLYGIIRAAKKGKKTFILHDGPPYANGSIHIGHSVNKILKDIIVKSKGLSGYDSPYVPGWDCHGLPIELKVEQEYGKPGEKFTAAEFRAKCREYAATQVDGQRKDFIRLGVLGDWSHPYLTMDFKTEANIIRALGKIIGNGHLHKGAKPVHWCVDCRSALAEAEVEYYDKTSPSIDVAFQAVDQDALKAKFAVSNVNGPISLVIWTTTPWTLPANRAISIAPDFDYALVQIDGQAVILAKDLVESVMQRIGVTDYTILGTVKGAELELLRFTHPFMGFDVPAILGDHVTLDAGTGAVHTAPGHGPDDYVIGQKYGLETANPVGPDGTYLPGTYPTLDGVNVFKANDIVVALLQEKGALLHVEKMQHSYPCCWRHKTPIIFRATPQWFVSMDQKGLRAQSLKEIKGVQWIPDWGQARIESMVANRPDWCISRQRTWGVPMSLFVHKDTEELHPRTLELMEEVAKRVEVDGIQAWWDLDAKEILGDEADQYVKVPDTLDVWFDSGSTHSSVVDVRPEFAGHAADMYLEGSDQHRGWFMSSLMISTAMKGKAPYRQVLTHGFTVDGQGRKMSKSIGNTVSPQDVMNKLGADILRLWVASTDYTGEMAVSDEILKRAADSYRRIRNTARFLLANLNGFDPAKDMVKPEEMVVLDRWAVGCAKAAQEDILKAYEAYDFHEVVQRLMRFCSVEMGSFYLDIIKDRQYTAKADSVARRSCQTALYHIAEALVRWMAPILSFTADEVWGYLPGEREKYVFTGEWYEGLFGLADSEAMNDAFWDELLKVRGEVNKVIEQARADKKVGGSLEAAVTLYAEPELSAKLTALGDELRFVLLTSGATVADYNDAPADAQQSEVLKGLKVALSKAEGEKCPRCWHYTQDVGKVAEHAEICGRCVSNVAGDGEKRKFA

[5] = tested on: normal porcine macrophage proteins; experiment: Solid phase screening of Library 4 with labeled porcine viral and macrophage proteins; assay type: binding; settings: Normal Macrophages
Text: Alternatively, the fluorescent ligand library beads containing bound protein obtained as described in Examples 47, 48, 49 and 51 were sorted using a COPAS (250) NF Bead Sorter (Union Biometrica, Somerville, Mass.) equipped with a dual detector. Both the cyanine dyes used in the labeling procedure, namely Cy 2 (emission wavelength—510 nm) and Cy 3 (emission wavelength—570 nm) were simultaneously excited at […] The bead selection window was then set-up such that all beads containing significant green fluorescence and no red flourescence were isolated. The unselected beads were then resorted to obtain beads containing red fluorescence (proteins from basal cells). […]
as §3, §4

O=C(O)CNC(=O)c1ccc(-c2ccco2)o1
Identified Protein(s) [1]: Serine-threonine kinase (gi 474842); Hemopexin precur- sor (Beta-1B-glycoprotein) (P02790); 116 kDa U5 small nuclear ribonucleoprotein component (O08810).

CC(C)C(NC(CCCCN)C(=O)NCC(=O)O)C(C)C (centres unmarked)
Identified Protein(s) [2]: Glycogen ssynthase kinase-3 beta factor (AQ9WV60).

O=C(O)c1ccc(CN2C[C@@H](CN(C(=O)c3ccccc3)C3(C(=O)O)CCCC3)N3C(=O)c4ccccc4[C@H]23)cc1 [HY3]
Identified Protein(s) (basal myocyte protein): NADH-ubiquinone oxidoreductase B14 subunit (Q9CQZ5).

COc1ccc(Br)c(OC)c1C(=O)NC1(C(=O)O)CCCCC1
Identified Protein(s) [1]: Translin-associated protein X (Q99598); Hypothetical Protein ORF-1137 (P11260); Integrin alpha-1 (Laminin and collagen receptor VLA-1,CD49a) (P56199_.

CNC[C@H](O)c1cccc(O)c1 [PE, phenylephrine]
cell size at time of harvest (Myocytes): significantly enlarged

CC(=O)N(C[C@@H]1CN(Cc2ccc(C(=O)O)cc2)[C@H]2c3ccccc3C(=O)N12)C1(C(=O)O)CCCC1 [HY6]
Identified Protein(s) [3]: Myosin chain (Q63358); NF-kappa B-repressing factor (Transcription factor ITBA4 protein) (O15226).

CCCCCCNC(=O)C(CCCCN)NC(C(C)C)C(C)C (centres unmarked) [drawing 179]
Identified Protein(s) [2]: Heat Shock protein 70 kDa protein 12A (Q8KOU4).

CC(CCc1ccccc1)N1C[C@@H](CN2Cc3ccccc3CC2C(=O)O)N2C(=O)c3ccccc3[C@H]12 (some centres unmarked) [HY5]
Identified Protein(s) (basal myocyte protein): Myosin Va (Myosin 5A, dilute myosin heavy chain, non muscle (Q9Y411).

C/C(=C\C(=O)OCCCCCCCCC(=O)O)C[C@@H]1OC[C@H](C[C@@H]2O[C@H]2[C@@H](C)[C@H](C)O)[C@@H](O)[C@H]1O [Mupirocin]
inhibition of isoleucine tRNA synthetase [4]: inhibits the enzyme isoleucine tRNA synthetase

CCOC(=O)C(CCc1ccccc1)NC(CCCCN)C(=O)N1CCC[C@H]1C(=O)O (some centres unmarked) [drawing 175]
Identified Protein(s) [2]: Angiotensin converting enzyme (P22967); U2 nuclear ribonucleoprotein auxiliary factor (gi 2842676).

O=C1NCCC[C@@H](C(=O)N[C@@H](CCc2ccccc2)C(=O)O)N1 [HY2]
Identified Protein(s) [5]: Protein kinase byr2 (Protein kinase ste8) (MAP kinase) (P28829); Similar to protein kinase 2 (Testicular) (Q885R6); Thiamine-triphosphatase (Q8CgV7).

CCC(C)C(=O)N(C[C@@H]1CN(C(C)C)[C@H]2c3ccccc3C(=O)N12)[C@H]1CCCCN(CC(=O)O)C1=O (some centres unmarked) [HY8]
Identified Protein(s) [3]: Zinc finger protein 339 (Q9BRPO); DNA repair protein RAD52 homolog (P43351).

O=C1c2ccccc2[C@@H]2N(Cc3ccc(O)cc3)C[C@@H](CN(C(=O)CCc3ccccc3)C3(C(=O)O)CCCC3)N12 [HY4]
Identified Protein(s) (basal myocyte protein): NADH-ubiquinone oxidoreductase B14 subunit (Q9CQZ5).

C[C@H](NC(=O)[C@@H]1CCCCNC(=O)N1)C(=O)O [HY1]
Identified Protein(s) [5]: Protein kinase C binding protein 1 also contains a zinc finger domain with protein 8) (Q9U1U4); Guanine nucle- otide-binding protein G(S), alpha subunit (Adenylate cy- clase-stimulating G alpha protein) (P048949).
